# Patent US11013714B2, “Use of homoeriodictyol (HED) for reducing the gastric acid secretion-stimulating effect of n-acetyl-4-aminophenol (Paracetamol)” (SYMRISE AG, priority 2016, dated 2021)
# Several values for one entry are separate records, joined by “and”; a condition that tells them apart may be missing. Equal values may be shown once. Read-outs that look alike come from different tables or passages of the source.
# How the values were obtained:
# HGT-1 cells [1] = conditions: cited from earlier work
# HGT-1 cells [2] = assay: Proton secretion in HGT-1 cells (intracellular pH, SNARF-1-AM dye); assay type: cell-based, human
# Experimental: Human parietal cells (human gastric tumour cell line, HGT-1) were used as cellular model. These were provided by Dr. C. Laboisse (Laboratory of Pathological Anatomy, Nantes, France). The cells are cultured at standard conditions at 37° C., 5% CO2 in DMEM (Dulbecco's Modified […] Medium) with 4 g/L glucose, 10% FBS, 2% L-glutamine and 1% Penicillin/Streptomycin. For measuring the intracellular proton concentration, the cells are treated with Trypsin/EDTA, the cellular viability was determined with Trypan blue staining and 100 000 cells/well were seeded in black 96-well plates. […] The cells in the 96-well plates are washed once with Krebs-Hepes-buffer (KRHP) and incubated with the dye in a concentration of 3 μM dissolved in KRHP for 30 min at 37° C. and 5% CO2. Afterwards, the cells are washed twice with KRHP and substances stimulating gastric acid secretion, as for example 3 mM caffeine, 0.3 mM Theobromine or 3 mM Paracetamol alone or in combination with substances for reducing the gastric acid stimulating effect of the above substances, for example Homoeriodictyol (HED), in various concentrations in phenol red free DMEM in a volume of 100 μL were added; as a further control, the substances stimulating gastric acid secretion as named above were tested alone. Homoeriodictyol is dissolved in double distilled water. The final concentration of solvent, which is added to the cells, is at most 1%. The fluorescent dye is excited at the wave length of 488 nm and the emission is measured at 580 nm and 640 nm. […] For the calibration curve, the cells are treated with a potassium buffer in different pH values of from 7.2 to 8.2 and 2 μM Nigericin. Nigericin equilibrates the intracellular and extracellular pH value so that the intracellular pH value can be defined. The intracellular H^+-concentration is obtained from the intracellular pH value. The intracellular proton index (IPX) is calculated by log 2 transformation of the ratio of treated cells and untreated cells (control) ([…].; Somoza, M. M.; Hofmann, T.; Somoza, V., Mol Nutr Food Res 2012, 56, 325-335; Rubach, M.; Lang, R.; Hofmann, T.; Somoza, V., Ann N Y Acad Sci 2008, 1126, 310-4; […].; Hofmann, T.; Somoza, V., J Agric Food Chem 2010, 58, 4153-61; Weiss, […].; Blumberg, S.; Frank, O.; Hofmann, T.; Somoza, V., J Agric Food Chem 2010, 58, 1976-85; Liszt, K. I.; Walker, J.; Somoza, V., J Agric Food Chem 2012, 60, 7022-7030; Walker, J.; Hell, J.; Liszt, […].; Hofmann, T.; Somoza, V., J Agric Food Chem 2012, 60, 1405-12). The number of indicated replicates relates to technical replicates (tr) or the number of total replicates (n), which results from the number of technical replicates multiplied with the number of biological replicates. […] Statistics: one-way Anova with Holm-Sidak post-hoc test. Significant differences (p<0.05) are indicated by letters.
# TAS2R43 = biological target: T1, TAS2R43 (Homo sapiens, UniProt P59537); assay: Own experiments on bitter receptor TAS2R43
# T1 sequence (P59537 1-309): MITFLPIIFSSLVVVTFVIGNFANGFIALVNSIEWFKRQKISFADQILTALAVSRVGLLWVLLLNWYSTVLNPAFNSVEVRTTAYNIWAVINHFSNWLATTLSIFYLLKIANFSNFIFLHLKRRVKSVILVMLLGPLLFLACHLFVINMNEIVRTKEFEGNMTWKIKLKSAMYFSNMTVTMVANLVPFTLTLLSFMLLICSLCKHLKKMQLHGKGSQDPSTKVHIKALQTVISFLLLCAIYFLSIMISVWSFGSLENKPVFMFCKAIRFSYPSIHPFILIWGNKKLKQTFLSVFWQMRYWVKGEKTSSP
# TAS2R39 = biological target: T2, TAS2R39 (Homo sapiens, UniProt P59534); conditions: Roland et al., J. Agric. Food Chem. 2013; cited from earlier work
# T2 sequence (P59534 1-338): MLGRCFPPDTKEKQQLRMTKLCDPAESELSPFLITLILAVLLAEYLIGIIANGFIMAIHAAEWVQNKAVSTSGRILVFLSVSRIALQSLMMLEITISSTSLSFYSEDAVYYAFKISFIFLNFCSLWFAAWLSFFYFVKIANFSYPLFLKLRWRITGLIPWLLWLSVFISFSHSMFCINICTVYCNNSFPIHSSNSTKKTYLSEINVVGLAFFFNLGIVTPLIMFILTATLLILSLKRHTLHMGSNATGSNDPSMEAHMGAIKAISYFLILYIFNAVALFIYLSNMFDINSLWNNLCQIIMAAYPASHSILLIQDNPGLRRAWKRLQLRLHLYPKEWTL
smiles,measurement,setting,value
"COc1cc(C2CC(=O)c3c(O)cc(O)cc3O2)ccc1O (centres unmarked) [HED, 3′-Methoxy-4′,5,7-trihydroxy flavanone]","percentage increase (positive values) or decrease (negative values) of the proton secretion, mean","HGT-1 cells [1]; 0.3 mM Theobromine + 0.003 mM HED, 10 minutes",21.56%
same,"percentage increase (positive values) or decrease (negative values) of the proton secretion, mean","HGT-1 cells [1]; 0.3 mM Theobromine + 0.03 mM HED, 10 minutes",14% and 13.79%
same,"percentage increase (positive values) or decrease (negative values) of the proton secretion, mean","HGT-1 cells [1]; 0.3 mM Theobromine + 0.3 mM HED, 10 minutes",−16.92%
same,"percentage increase (positive values) or decrease (negative values) of the proton secretion, mean","HGT-1 cells [1]; 3 mM caffeine + 0.03 mM HED, 10 minutes",38%
same,"percentage increase (positive values) or decrease (negative values) of the proton secretion, mean","HGT-1 cells [1]; 3 mM caffeine + 0.3 mM HED, 10 minutes",20% and 20.20%
same,proton secretion decreased by,HGT-1 cells [1]; simultaneous incubation with 0.3 mM Theobromine and 0.3 mM HED,17%
same,effect on the proton secretion in HGT-1-cells,"HGT-1 cells [1]; sole HED, without gastric acid secretion-stimulating substances (WO 2014111436 A1)",no significant effect
same,"percentage increase (positive values) or decrease (negative values) of the proton secretion, mean","HGT-1 cells [2]; 3 mM Paracetamol + 0.003 mM HED, 10 minutes",10.96%
same,"percentage increase (positive values) or decrease (negative values) of the proton secretion, mean","HGT-1 cells [2]; 3 mM Paracetamol + 0.03 mM HED, 10 minutes",7% and 6.57%
same,"percentage increase (positive values) or decrease (negative values) of the proton secretion, mean","HGT-1 cells [2]; 3 mM Paracetamol + 0.3 mM HED, 10 minutes",−46.24%
same,effect on constitutive acid secretion,"HGT-1 cells [2]; 3 mM Paracetamol, addition of 0.3 mM HED, compared to control without active substances",significant reduction of the constitutive acid secretion
same,proton secretion induced by 3 mM Paracetamol,HGT-1 cells [2]; addition of 0.003 or 0.03 mM HED,reduced
same,proton secretion increased by,HGT-1 cells [2]; simultaneous incubation with 3 mM Paracetamol and 0.003 mM HED,11%
same,proton secretion reduced by,HGT-1 cells [2]; simultaneous incubation with 3 mM Paracetamol and 0.3 mM HED,46%
same,effect at receptor type TAS2R43,TAS2R43,antagonist
same,effect at receptor type TAS2R39,TAS2R39,agonist
"Cn1c(=O)c2c(ncn2C)n(C)c1=O [Caffeine, caffeine, reference compound]","percentage increase (positive values) or decrease (negative values) of the proton secretion, mean","HGT-1 cells [1]; 3 mM caffeine alone (DMEM), 10 minutes stimulation",54.80%
same,"percentage increase (positive values) or decrease (negative values) of the proton secretion, mean","HGT-1 cells [1]; 3 mM caffeine alone (DMEM), 10 minutes stimulation, listed as caffeine",55%
"Cn1cnc2c1c(=O)[nH]c(=O)n2C [Theobromine, reference compound]","percentage increase (positive values) or decrease (negative values) of the proton secretion, mean","HGT-1 cells [1]; 0.3 mM Theobromine alone (DMEM), 10 minutes stimulation",21% and 20.92%
"CC(=O)Nc1ccc(O)cc1 [Paracetamol, N-(4-Hydroxyphenyl)acetamide]","percentage increase (positive values) or decrease (negative values) of the proton secretion, mean","HGT-1 cells [2]; 3 mM Paracetamol alone (DMEM), 10 minutes stimulation",24% and 24.10%
